Values after ≈ are worked out from the molar mass of the structure shown. Active and inactive are the calls of the source. The calls are words filed in the database; no cut-off is given here.
Key:
[1] = target: T1, Lanosterol 14-alpha demethylase (Candida albicans (strain SC5314 / ATCC MYA-2876) (Yeast), UniProt P10613); test: Inhibition of CYP51 in Candida albicans SC5314 assessed as eburicol level at 0.0625 ug/ml after 8 hrs by GC-MS analysis relative to control; set-up: scale not given: the % may be the effect or the level left; settings: at 0.0625 µg/mL
T1 sequence (P10613 whole entry): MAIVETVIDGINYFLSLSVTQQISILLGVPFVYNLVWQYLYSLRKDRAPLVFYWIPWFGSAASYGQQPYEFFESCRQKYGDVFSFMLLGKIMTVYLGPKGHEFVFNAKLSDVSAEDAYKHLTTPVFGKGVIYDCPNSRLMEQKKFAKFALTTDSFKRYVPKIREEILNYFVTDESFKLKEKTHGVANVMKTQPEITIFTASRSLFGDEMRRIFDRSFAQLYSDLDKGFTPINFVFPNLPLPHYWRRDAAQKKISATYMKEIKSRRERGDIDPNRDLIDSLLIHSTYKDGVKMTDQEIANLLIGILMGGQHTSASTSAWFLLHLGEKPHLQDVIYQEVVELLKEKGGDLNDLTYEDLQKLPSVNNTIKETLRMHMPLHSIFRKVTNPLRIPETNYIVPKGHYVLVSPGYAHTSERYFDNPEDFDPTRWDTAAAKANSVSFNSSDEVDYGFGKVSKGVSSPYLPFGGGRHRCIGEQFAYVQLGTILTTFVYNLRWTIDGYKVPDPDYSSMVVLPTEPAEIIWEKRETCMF

Candida tropicalis [2] = test: Potency index, ratio of ravuconazole MIC to test compound MIC for antifungal activity against Candida tropicalis 8915 assessed as inhibition of fungal growth incubated for 48 hrs by CLSI based broth microdilution assay; type: functional
Saccharomyces cerevisiae [3] = test: Antifungal activity against recombinant Saccharomyces cerevisiae Y2767 overexpressing CauErg11 assessed as inhibition of fungal growth incubated for 48 hrs by CLSI based broth microdilution assay; type: functional
Saccharomyces cerevisiae [4] = test: Antifungal activity against recombinant Saccharomyces cerevisiae Y2462 overexpressing ScErg11/ScNcp1 assessed as inhibition of fungal growth incubated for 48 hrs by CLSI based broth microdilution assay; type: functional
Candida albicans [5] = test: Antifungal activity against Candida albicans 10231 assessed as inhibition of fungal growth incubated for 48 hrs by CLSI based broth microdilution assay; type: functional
Saccharomyces cerevisiae [6] = test: Antifungal activity against recombinant Saccharomyces cerevisiae Y2711 overexpressing CnErg11 assessed as inhibition of fungal growth incubated for 48 hrs by CLSI based broth microdilution assay; type: functional
Saccharomyces cerevisiae [7] = test: Antifungal activity against recombinant Saccharomyces cerevisiae Y2301 overexpressing ScErg11 Y140F mutant assessed as inhibition of fungal growth incubated for 48 hrs by CLSI based broth microdilution assay; type: functional
Candida albicans [8] = test: Antibiofilm activity against Candida albicans SC5314 assessed as increase in matured biofilm distruption incubated for 24 hrs by XTT assay; type: functional, organism-based; settings: dose 0.25-64 µg/ml
Candida albicans [9] = test: Antifungal activity against Candida albicans SC5314 assessed as inhibition of fungal growth incubated for 48 hrs by CLSI based broth microdilution assay; type: functional
Candida parapsilosis [10] = test: Antifungal activity against Candida parapsilosis 22019 assessed as inhibition of fungal growth at 0.125 ug/ml measured up to 48 hrs by TECAN plate reader analysis; type: functional, organism-based; settings: dose 0.125 µg/ml
Saccharomyces cerevisiae [11] = test: Antifungal activity against recombinant Saccharomyces cerevisiae Y2513 overexpressing ScErg11 Y140H mutant assessed as inhibition of fungal growth incubated for 48 hrs by CLSI based broth microdilution assay; type: functional
Saccharomyces cerevisiae [12] = test: Selectivity index, ratio of MIC for antifungal activity against recombinant Saccharomyces cerevisiae Y525 overexpressing CaMdr1 to MIC for antifungal activity against recombinant Saccharomyces cerevisiae Y2411 overexpressing ScErg11; type: functional
Saccharomyces cerevisiae [13] = test: Antifungal activity against recombinant Saccharomyces cerevisiae Y2768 overexpressing CauErg11 T132F mutant assessed as inhibition of fungal growth incubated for 48 hrs by CLSI based broth microdilution assay; type: functional
[Candida] auris [14] = Antifungal activity against fluconazole-resistant Candida auris 919 assessed as inhibition of fungal growth incubated for 48 hrs by CLSI based broth microdilution assay; type: functional; settings: Candidozyma auris
Nakaseomyces glabratus [15] = test: Antifungal activity against Candida glabrata 537 assessed as inhibition of fungal growth at 2 ug/ml measured up to 48 hrs by TECAN plate reader analysis; type: functional, organism-based; settings: dose 2.0 µg/ml
Nakaseomyces glabratus [16] = test: Antifungal activity against Candida glabrata 537 assessed as inhibition of fungal growth incubated for 48 hrs by CLSI based broth microdilution assay; type: functional
Candida albicans [17] = test: Antifungal activity against Candida albicans SC5314 assessed as inhibition of fungal growth at 0.125 ug/ml after 48 hrs by TECAN plate reader analysis relative to control; type: functional
Saccharomyces cerevisiae [18] = test: Antifungal activity against recombinant Saccharomyces cerevisiae Y2459 overexpressing CaErg11/CaCpr assessed as inhibition of fungal growth incubated for 48 hrs by CLSI based broth microdilution assay; type: functional
Candida albicans [19] = test: Antifungal activity against Candida albicans SC5314 assessed as inhibition of hyphae formation at 0.625 ug/ml after 3 hrs by inverted microscopic analysis relative to control; type: functional
[20] = target: T1, Lanosterol 14-alpha demethylase; test: Inhibition of CYP51 in Candida albicans SC5314 assessed as 14alpha-methylfecosterol level at 0.0625 ug/ml after 8 hrs by GC-MS analysis relative to control; set-up: scale not given: the % may be the effect or the level left; settings: at 0.0625 µg/mL
[21] = target: T1, Lanosterol 14-alpha demethylase; test: Inhibition of CYP51 in Candida albicans SC5314 assessed as lanosterol level at 0.0625 ug/ml after 8 hrs by GC-MS analysis (reference value: 5.9 %); set-up: scale not given: the % may be the effect or the level left; settings: at 0.0625 µg/mL
Candida tropicalis [22] = test: Antifungal activity against Candida tropicalis 8915 assessed as inhibition of fungal growth incubated for 48 hrs by CLSI based broth microdilution assay; type: functional
Candida albicans [23] = test: Antifungal activity against fluconazole-resistant Candida albicans 901 assessed as inhibition of fungal growth incubated for 48 hrs by CLSI based broth microdilution assay; type: functional
[Candida] auris [24] = Antifungal activity against fluconazole-resistant Candida auris 918 assessed as inhibition of fungal growth incubated for 48 hrs by CLSI based broth microdilution assay; type: functional; settings: Candidozyma auris
Saccharomyces cerevisiae [25] = test: Antifungal activity against recombinant Saccharomyces cerevisiae Y2411 overexpressing ScErg11 assessed as inhibition of fungal growth incubated for 48 hrs by CLSI based broth microdilution assay; type: functional
Candida parapsilosis [26] = test: Antifungal activity against Candida parapsilosis 22019 assessed as inhibition of fungal growth incubated for 48 hrs by CLSI based broth microdilution assay; type: functional; settings: Lodderomyces parapsilosis
Saccharomyces cerevisiae [27] = test: Antifungal activity against recombinant Saccharomyces cerevisiae Y2766 overexpressing CauCdr1 assessed as inhibition of fungal growth incubated for 48 hrs by CLSI based broth microdilution assay; type: functional
Saccharomyces cerevisiae [28] = test: Antifungal activity against recombinant Saccharomyces cerevisiae Y2374 overexpressing CgErg11 assessed as inhibition of fungal growth incubated for 48 hrs by CLSI based broth microdilution assay; type: functional
Saccharomyces cerevisiae [29] = test: Antifungal activity against recombinant Saccharomyces cerevisiae Y570 overexpressing CaCdr1 assessed as inhibition of fungal growth incubated for 48 hrs by CLSI based broth microdilution assay; type: functional
Saccharomyces cerevisiae [30] = test: Antifungal activity against recombinant Saccharomyces cerevisiae Y2721 overexpressing CpErg11/CpCpr assessed as inhibition of fungal growth incubated for 48 hrs by CLSI based broth microdilution assay; type: functional
Pichia kudriavzevii = test: Antifungal activity against Candida krusei 4996 assessed as inhibition of fungal growth incubated for 48 hrs by CLSI based broth microdilution assay; type: functional
[Candida] auris [31] = Antifungal activity against fluconazole-resistant Candida auris 891 assessed as inhibition of fungal growth incubated for 48 hrs by CLSI based broth microdilution assay; type: functional; settings: Candidozyma auris
Saccharomyces cerevisiae [32] = test: Antifungal activity against recombinant Saccharomyces cerevisiae Y525 overexpressing CaMdr1 assessed as inhibition of fungal growth incubated for 48 hrs by CLSI based broth microdilution assay; type: functional
Candida albicans [33] = test: Antifungal activity against Candida albicans SC5314 assessed as inhibition of hyphae length after 3 hrs by inverted microscopic analysis; type: functional, organism-based; settings: dose 0.0625-1 µg/ml
[34] = target: T1, Lanosterol 14-alpha demethylase; test: Inhibition of CYP51 in Candida albicans SC5314 assessed as obtusifoliol level at 0.0625 ug/ml after 8 hrs by GC-MS analysis relative to control; set-up: scale not given: the % may be the effect or the level left; settings: at 0.0625 µg/mL
Candida albicans [35] = test: Antibiofilm activity against Candida albicans SC5314 assessed as inhibition of biofilm formation at 64 ug/mL incubated for 24 hrs by XTT assay relative to control; type: functional
Candida albicans [36] = test: Antifungal activity against fluconazole-resistant Candida albicans 904 assessed as inhibition of fungal growth incubated for 48 hrs by CLSI based broth microdilution assay; type: functional
[37] = Cytotoxicity against HUVEC cells assessed as cell viability at 128 ug/ml incubated for 24 hrs by CCK-8 assay relative to control; type: toxicity, cell-based; settings: human, at 128 µg/mL, read-out: Activity
Candida tropicalis [38] = test: Potency index, ratio of fluconazole MIC to test compound MIC for antifungal activity against Candida tropicalis 8915 assessed as inhibition of fungal growth incubated for 48 hrs by CLSI based broth microdilution assay; type: functional
Candida albicans [39] = test: Antibiofilm activity against Candida albicans SC5314 assessed as increase in matured biofilm distruption at 64 ug/ml incubated for 24 hrs by XTT assay relative to control; type: functional; settings: dose 64 µg/ml
Saccharomyces cerevisiae [40] = test: Antifungal activity against recombinant Saccharomyces cerevisiae Y2300 overexpressing ScErg11 assessed as inhibition of fungal growth incubated for 48 hrs by CLSI based broth microdilution assay; type: functional
Saccharomyces cerevisiae [41] = test: Antifungal activity against recombinant Saccharomyces cerevisiae Y2769 overexpressing CauErg11 K143R mutant assessed as inhibition of fungal growth incubated for 48 hrs by CLSI based broth microdilution assay; type: functional
Cryptococcus neoformans = test: Antifungal activity against Cryptococcus neoformans 32609 assessed as inhibition of fungal growth incubated for 72 hrs by CLSI based broth microdilution assay; type: functional
Saccharomyces cerevisiae [42] = test: Antifungal activity against recombinant Saccharomyces cerevisiae Y2716 overexpressing CpErg11 Y132F mutant/ CpCpr assessed as inhibition of fungal growth incubated for 48 hrs by CLSI based broth microdilution assay; type: functional
Saccharomyces cerevisiae [43] = test: Antifungal activity against recombinant Saccharomyces cerevisiae Y2765 overexpressing CauMdr1 assessed as inhibition of fungal growth incubated for 48 hrs by CLSI based broth microdilution assay; type: functional
[44] = target: T1, Lanosterol 14-alpha demethylase; test: Inhibition of CYP51 in Candida albicans SC5314 assessed as ergosterol level at 0.0625 ug/ml after 8 hrs by GC-MS analysis (reference value: 86.2 %); set-up: scale not given: the % may be the effect or the level left; settings: at 0.0625 µg/mL

## C[C@@H](OCc1ccn(Cc2ccc(F)cc2)n1)[C@](O)(Cn1cncn1)c1ccc(F)cc1F
[1]
  Activity: ~ 20%
Candida tropicalis [2]
  Ratio: 32
Saccharomyces cerevisiae [3]
  MIC: 0.0313 µg/mL
Saccharomyces cerevisiae [4]
  MIC: 0.125 µg/mL
Candida albicans [5]
  MIC: ≤ 0.125 µg/mL
Saccharomyces cerevisiae [6]
  MIC: 0.008 µg/mL
Saccharomyces cerevisiae [7]
  MIC: 0.0313 µg/mL
Candida albicans [8]
  Activity: Dose-Dependent Effect
Candida albicans [9]
  MIC: ≤ 0.125 µg/mL
Candida parapsilosis [10]
  inhibition: Active
Saccharomyces cerevisiae [11]
  MIC: 0.016 µg/mL
Saccharomyces cerevisiae [12]
  Ratio: 16
Saccharomyces cerevisiae [13]
  MIC: 0.063 µg/mL
[Candida] auris [14]
  MIC: 16 µg/mL (≈ 35 µM)
Nakaseomyces glabratus [15]
  inhibition: inactive
Nakaseomyces glabratus [16]
  MIC: ≤ 0.125 µg/mL
Candida albicans [17]
  inhibition at 0.125 µg/mL: 100%
Saccharomyces cerevisiae [18]
  MIC: 0.0313 µg/mL
Candida albicans [19]
  inhibition at 0.625 µg/mL: 100%
[20]
  Activity: ~ 20%
[21]
  Activity: > 25%
Candida tropicalis [22]
  MIC: 0.25 µg/mL (≈ 0.547 µM)
Candida albicans [23]
  MIC: 2 µg/mL (≈ 4.37 µM)
[Candida] auris [24]
  MIC: 16 µg/mL (≈ 35 µM)
Saccharomyces cerevisiae [25]
  MIC: 0.016 µg/mL
Candida parapsilosis [26]
  MIC: 0.25 µg/mL (≈ 0.547 µM)
Saccharomyces cerevisiae [27]
  MIC: 4 µg/mL
Saccharomyces cerevisiae [28]
  MIC: 0.0313 µg/mL
Saccharomyces cerevisiae [29]
  MIC: 32 µg/mL
Saccharomyces cerevisiae [30]
  MIC: 0.0313 µg/mL
Pichia kudriavzevii
  MIC: 4 µg/mL (≈ 8.74 µM)
[Candida] auris [31]
  MIC: 16 µg/mL (≈ 35 µM)
Saccharomyces cerevisiae [32]
  MIC: 0.25 µg/mL
Candida albicans [33]
  inhibition: Dose-Dependent Effect
[34]
  Activity: ~ 20%
Candida albicans [35]
  inhibition at 64 µg/mL: > 55%
Candida albicans [36]
  MIC: 8 µg/mL (≈ 17.5 µM)
[37]
  viability at 24 h, 128 ug/ml: 75.8%
Candida tropicalis [38]
  Ratio: 256
Candida albicans [39]
  Activity: 49.2%
Saccharomyces cerevisiae [40]
  MIC: 0.063 µg/mL
Saccharomyces cerevisiae [41]
  MIC: 0.063 µg/mL
Cryptococcus neoformans
  MIC: 0.25 µg/mL (≈ 0.547 µM)
Saccharomyces cerevisiae [42]
  MIC: 0.125 µg/mL
Saccharomyces cerevisiae [43]
  MIC: 0.25 µg/mL
[44]
  Activity: 1.4%

## C[C@@H](c1nc(-c2ccc(C#N)cc2)cs1)[C@](O)(Cn1cncn1)c1ccc(F)cc1F [RAVUCONAZOLE]
Saccharomyces cerevisiae [3]
  MIC: 0.016 µg/mL
Saccharomyces cerevisiae [4]
  MIC: 0.008 µg/mL
Candida albicans [5]
  MIC: ≤ 0.125 µg/mL
Saccharomyces cerevisiae [6]
  MIC: 0.008 µg/mL
Saccharomyces cerevisiae [7]
  MIC: 0.016 µg/mL
Candida albicans [9]
  MIC: ≤ 0.125 µg/mL
Saccharomyces cerevisiae [11]
  MIC: 0.008 µg/mL
Saccharomyces cerevisiae [13]
  MIC: 0.008 µg/mL
[Candida] auris [14]
  MIC: 1 µg/mL (≈ 2.29 µM)
Nakaseomyces glabratus [16]
  MIC: ≤ 0.125 µg/mL
Saccharomyces cerevisiae [18]
  MIC: 0.008 µg/mL
Candida tropicalis [22]
  MIC: 8 µg/mL (≈ 18.3 µM)
Candida albicans [23]
  MIC: 16 µg/mL (≈ 36.6 µM)
[Candida] auris [24]
  MIC: 1 µg/mL (≈ 2.29 µM)
Saccharomyces cerevisiae [25]
  MIC: 0.008 µg/mL
Candida parapsilosis [26]
  MIC: ≤ 0.125 µg/mL
Saccharomyces cerevisiae [27]
  MIC: 2 µg/mL
Saccharomyces cerevisiae [28]
  MIC: 0.008 µg/mL
Saccharomyces cerevisiae [29]
  MIC: 16 µg/mL
Saccharomyces cerevisiae [30]
  MIC: 0.008 µg/mL
Pichia kudriavzevii
  MIC: 1 µg/mL (≈ 2.29 µM)
[Candida] auris [31]
  MIC: 1 µg/mL (≈ 2.29 µM)
Saccharomyces cerevisiae [32]
  MIC: 0.063 µg/mL
Candida albicans [36]
  MIC: 16 µg/mL (≈ 36.6 µM)
Saccharomyces cerevisiae [40]
  MIC: 0.008 µg/mL
Saccharomyces cerevisiae [41]
  MIC: 0.008 µg/mL
Cryptococcus neoformans
  MIC: ≤ 0.125 µg/mL
Saccharomyces cerevisiae [42]
  MIC: 0.008 µg/mL
Saccharomyces cerevisiae [43]
  MIC: 0.016 µg/mL
